Measurements published in US11370795B2, “Process for the synthesis of 6-[(3S,4S)-4-methyl-1-(pyrimidin-2-ylmethyl)pyrrolidin-3-yl]-3-tetrahydropyran-4-yl-7H-imidazo[1,5-a]pyrazin-8-one” (Imara Inc., priority 2017, dated 2022).

What was measured:
[1] = Blood Brain Barrier penetration (plasma and brain concentration); format: in vivo
[2] = Stability study of drug substance in sealed pouches; format: physicochemical; details: ambient temperature and 40° C.-45° C. (no humidity control), 3-month period, polyethylene pouches in aluminum pouch
Experimental: A stability study has been completed on Compound P3.1. Samples of Compound P3.1 were aliquoted into double-walled polyethylene pouches, which were tied off and then heat-sealed in an aluminum pouch. Samples were stored at ambient temperature and at 40° C.-45° C. (no humidity control) with testing performed over a 3-month period.

Brain concentration after 120 minutes ([1]; brain, 120 min) | Changes to appearance or purity of the material [2] | Kp at 0.5 h ([1]; brain/plasma, 30 min, read-out: Brain/Plasma ratio after 30 minutes) | Kp at 2 h ([1]; brain/plasma, 120 min, read-out: Brain/Plasma ratio after 120 minutes) | SMILES
detection limit |  |  |  | O=c1[nH]c(CN2CC(Oc3cccnc3)C2)cn2c(C3CCOCC3)ncc12 [Compound (P2)]
 | no changes to appearance or purity | 0.04 | 0.03 | C[C@@H]1CN(Cc2ncccn2)C[C@H]1c1cn2c(C3CCOCC3)ncc2c(=O)[nH]1 [Compound P3.1, 6-[(3S,4S)-4-methyl-1-(pyrimidin-2-ylmethyl)pyrrolidin-3-yl]-3-tetrahydropyran-4-yl-7H-imidazo[1,5-a]pyrazin-8-one]
